These results are taken from patent publication US9221796B2, “Selective NR2B antagonists” (BRISTOL-MYERS SQUIBB COMPANY, priority 2014, dated 2015).

As usually defined, the pKi is the Ki on a negative log10 scale, so that one unit is a factor of ten.

pKi: −log10 of the molar value.

NR2B-subtype NMDA receptors, sequence (Q00960 27-1482, other chains not shown): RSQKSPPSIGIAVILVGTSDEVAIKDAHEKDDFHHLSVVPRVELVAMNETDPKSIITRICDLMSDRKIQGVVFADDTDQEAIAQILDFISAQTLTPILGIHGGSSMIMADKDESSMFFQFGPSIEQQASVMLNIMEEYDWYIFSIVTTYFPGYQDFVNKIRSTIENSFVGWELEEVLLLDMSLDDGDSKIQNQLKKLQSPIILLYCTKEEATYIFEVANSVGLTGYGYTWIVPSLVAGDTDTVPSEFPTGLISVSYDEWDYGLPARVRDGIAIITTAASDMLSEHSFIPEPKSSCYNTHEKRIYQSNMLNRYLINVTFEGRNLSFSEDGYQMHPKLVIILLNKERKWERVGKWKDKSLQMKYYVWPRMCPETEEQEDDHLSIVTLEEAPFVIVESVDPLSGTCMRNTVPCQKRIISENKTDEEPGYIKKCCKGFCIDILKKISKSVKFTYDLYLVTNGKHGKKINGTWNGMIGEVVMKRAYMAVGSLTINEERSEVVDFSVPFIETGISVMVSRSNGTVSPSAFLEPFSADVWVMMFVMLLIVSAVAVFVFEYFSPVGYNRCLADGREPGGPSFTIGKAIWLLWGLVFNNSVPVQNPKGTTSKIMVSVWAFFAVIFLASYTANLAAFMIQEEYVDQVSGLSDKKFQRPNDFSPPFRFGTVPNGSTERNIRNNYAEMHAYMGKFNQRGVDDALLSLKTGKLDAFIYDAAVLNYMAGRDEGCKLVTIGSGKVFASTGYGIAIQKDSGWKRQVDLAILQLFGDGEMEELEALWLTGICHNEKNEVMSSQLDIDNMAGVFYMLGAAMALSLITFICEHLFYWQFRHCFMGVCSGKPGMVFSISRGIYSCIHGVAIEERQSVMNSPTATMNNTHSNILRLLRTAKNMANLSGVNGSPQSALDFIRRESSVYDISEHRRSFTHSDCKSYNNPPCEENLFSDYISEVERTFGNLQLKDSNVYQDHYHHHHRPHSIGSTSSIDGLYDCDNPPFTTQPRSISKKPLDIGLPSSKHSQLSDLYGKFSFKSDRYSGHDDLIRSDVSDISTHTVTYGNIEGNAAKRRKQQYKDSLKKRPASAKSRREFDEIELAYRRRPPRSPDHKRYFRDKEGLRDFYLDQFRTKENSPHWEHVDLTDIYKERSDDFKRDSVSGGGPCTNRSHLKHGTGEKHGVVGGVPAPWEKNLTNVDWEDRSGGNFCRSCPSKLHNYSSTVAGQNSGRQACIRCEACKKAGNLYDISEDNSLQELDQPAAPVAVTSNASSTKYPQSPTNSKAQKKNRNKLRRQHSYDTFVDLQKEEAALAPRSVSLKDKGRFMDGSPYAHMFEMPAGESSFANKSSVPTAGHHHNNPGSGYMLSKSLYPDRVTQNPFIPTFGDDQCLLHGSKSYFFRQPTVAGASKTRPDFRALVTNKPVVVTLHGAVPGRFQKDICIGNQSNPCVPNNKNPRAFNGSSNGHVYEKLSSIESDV

This experiment addresses NR2B-subtype NMDA receptors (Rattus norvegicus (Rat), UniProt P35439+Q00960). Put plainly: Radioligand binding assay (3H Ro 25-6981 competition, forebrain membranes). To be noted: 3H Ro 25-6981 (4 nM), read-out: NR2B Binding Ki. How it is done: Radioligand Binding Assay. […] Buchy D; Klingelschmidt A; Messer J; Bleuel Z; Kemp J A; Richards J G. […] Thawed brains were homogenized using a Dounce homogenizer and centrifuged at 48000×g for 20 min. The pellet was resuspended in cold buffer and homogenized again using a Dounce homogenizer. […] After incubation for 1 hr at room temperature, the membrane bound radioligand was harvested on to GF/B filter plates (treated with 0.5% PEI for 1 hr at room temperature). The filter plates were dried at 50° C. for 20 mins, incubated with microscint 20 for 10 minutes and finally, the counts were read on TopCount (Perkin Elmer). […] CPM values were converted to % inhibition and the concentration response curves were plotted using custom made software. Each experiment was repeated at least twice to obtain the final binding Ki values for experimental compounds.
On to `O=C1[C@H](N2CC[C@@H](c3ccc(O)cc3)[C@H](F)C2)CCN1c1ccc(OC(F)F)c(Cl)c1` [Example 63, (R)-1-(3-Chloro-4-(difluoromethoxy)phenyl)-3-((3S,4S)-3-fluoro-4-(4-hydroxyphenyl)-piperidin-1-yl)pyrrolidin-2-one], for which the pKi was 8.00.
In the case of `O=C1[C@@H](N2CCC(c3ccc(O)cc3)C(F)(F)C2)CCN1Cc1ccc(Cl)cc1` (stereo partly drawn) [Example 106, P-1, (3S)-1-(4-Chlorobenzyl)-3-(3,3-difluoro-4-(4-hydroxyphenyl)piperidin-1-yl)pyrrolidin-2-one], the pKi is 6.00.
As to `O=C1C(N2CCN(c3ccc(O)cc3)CC2)CCN1Cc1ccc(F)cc1` (stereo not shown) [Example 113, 1-(4-fluorobenzyl)-3-(4-(4-hydroxyphenyl)piperazin-1-yl)pyrrolidin-2-one], the pKi is 7.48.
In the case of `O=C1[C@@H](N2CCC(c3ccc(O)cc3)C(F)(F)C2)CCN1Cc1ccc(Cl)c(F)c1` (stereo partly drawn) [Example 96, P-1, (3S)-1-(4-Chloro-3-fluorobenzyl)-3-(3,3-difluoro-4-(4-hydroxyphenyl)piperidin-1-yl)pyrrolidin-2-one], the pKi is 6.31.
For the compound `O=C1[C@H](N2CC[C@@H](c3ccc(O)cc3)[C@H](F)C2)CCN1Cc1ccc(Cl)c(F)c1` [Example 67, (R)-1-(4-Chloro-3-fluorobenzyl)-3-((3S,4S)-3-fluoro-4-(4-hydroxyphenyl)piperidin-1-yl)pyrrolidin-2-one], the pKi is 8.19.
As for `Cc1cc(O)ccc1C1CCN(C2CCN(Cc3ccccc3)C2=O)CC1` (stereo not shown) [Example 29, 1-Benzyl-3-(4-(4-hydroxy-2-methylphenyl)piperidin-1-yl)pyrrolidin-2-one], the pKi was 7.11.
Regarding `O=C1[C@H](N2CC[C@H](c3ccc(O)cc3)[C@@H](F)C2)CCN1Cc1ccc(Cl)cc1` [Example 81, (R)-1-(4-Chlorobenzyl)-3-((3R,4R)-3-fluoro-4-(4-hydroxyphenyl)piperidin-1-yl)pyrrolidin-2-one], the pKi was 8.42.
Then `O=C1C(N2CCC(c3ccc(O)cc3)CC2)CCN1C1CCc2ccccc21` (stereo not shown) [Example 34, 1-(2,3-Dihydro-1H-inden-1-yl)-3-(4-(4-hydroxyphenyl)piperidin-1-yl)pyrrolidin-2-one], with 6.17.
Take `O=C1C(N2CCC(c3ccc(O)cc3)C(F)(F)C2)CCN1Cc1ccc(F)c(Cl)c1` (stereo not shown) [Example 111, 1-(3-Chloro-4-fluorobenzyl)-3-(3,3-difluoro-4-(4-hydroxyphenyl)piperidin-1-yl)pyrrolidin-2-one]: the pKi is 6.23.
Take `O=C1C(N2CC(c3ccc(O)cc3)C2)CCN1Cc1ccc(F)c(F)c1` (stereo not shown) [Example 10, 1-(3,4-Difluorobenzyl)-3-(3-(4-hydroxyphenyl)azetidin-1-yl)pyrrolidin-2-one]: the pKi is 5.99.
`O=C1C(N2CCC(c3ccc(O)cc3)C(F)(F)C2)CCN1Cc1ccc(C(F)(F)F)cc1` (single isomer, unassigned) [Example 53, P-1, 3-(3,3-Difluoro-4-(4-hydroxyphenyl)piperidin-1-yl)-1-(4-(trifluoromethyl)-benzyl)pyrrolidin-2-one]: the pKi was 5.96.
`O=C1[C@@H](N2CC[C@@H](c3ccc(O)cc3)[C@H](F)C2)CCN1Cc1ccc(C(F)(F)F)cc1` [Example 71, (S)-3-((3S,4S)-3-Fluoro-4-(4-hydroxyphenyl)piperidin-1-yl)-1-(4-(trifluoromethyl)-benzyl)pyrrolidin-2-one]: the pKi is 6.25.
As to `O=C1[C@H](N2CC[C@@H](c3ccc(O)c(F)c3)[C@H](F)C2)CCN1Cc1ccc(C(F)F)cc1` [Example 117, P-2, (R)-1-(4-(difluoromethyl)benzyl)-3-((3S,4S)-3-fluoro-4-(3-fluoro-4-hydroxyphenyl)piperidin-1-yl)pyrrolidin-2-one], the pKi is 8.54.
For `O=C1C(N2CC[C@H](c3ccc(O)cc3)[C@@H](F)C2)CCN1c1ccc(OC(F)F)c(Cl)c1` (stereo partly drawn) [Example 79, 1-(3-Chloro-4-(difluoromethoxy)phenyl)-3-((3R,4R)-3-fluoro-4-(4-hydroxyphenyl)-piperidin-1-yl)pyrrolidin-2-one], the pKi was 7.40.
Take `C[C@@H](c1ccccc1)N1CCC(N2CC[C@@H](c3ccc(O)cc3)[C@H](F)C2)C1=O` (stereo partly drawn) [Example 68, 3-((3S,4S)-3-Fluoro-4-(4-hydroxyphenyl)piperidin-1-yl)-1-(1-phenylethyl)pyrrolidin-2-one]: the pKi was 6.15.
Turning to `Cc1cccc(CN2CCC(N3CC[C@H](c4ccc(O)cc4)[C@@H](F)C3)C2=O)c1` (stereo partly drawn) [Example 77, 3-((3R,4R)-3-Fluoro-4-(4-hydroxyphenyl)piperidin-1-yl)-1-(3-methylbenzyl)pyrrolidin-2-one], the pKi was 7.57.
On to `O=C1[C@H](N2CCC(c3ccc(O)cc3)C(F)(F)C2)CCN1Cc1ccc(F)c(F)c1` (single isomer, unassigned) [Example 108, P-2], for which the pKi was 7.82.
Then `Cc1ccc(CN2CC[C@@H](N3CC[C@@H](c4ccc(O)cc4)[C@H](F)C3)C2=O)cc1F` [Example 47, P-3, (R)-3-((3S,4S)-3-fluoro-4-(4-hydroxyphenyl)piperidin-1-yl)-1-(3-fluoro-4-methylbenzyl)pyrrolidin-2-one], with 8.42.
Regarding `Cc1ccc(CN2CC[C@@H](N3CC[C@H](c4ccc(O)c(F)c4)[C@@H](F)C3)C2=O)cc1F` [Example 45, P-4, (R)-3-((3R,4R)-3-fluoro-4-(3-fluoro-4-hydroxyphenyl)piperidin-1-yl)-1-(3-fluoro-4-methylbenzyl)pyrrolidin-2-one], the pKi is 8.60.
With `Cc1ccc(CN2CC[C@@H](N3CC[C@H](c4ccc(O)cc4)[C@@H](F)C3)C2=O)cc1F` [Example 47, P-4, (R)-3-((3R,4R)-3-fluoro-4-(4-hydroxyphenyl)piperidin-1-yl)-1-(3-fluoro-4-methylbenzyl)pyrrolidin-2-one], the negative logarithm of the Ki (pKi) was 8.47.
The value for `O=C1C(N2CC[C@H](c3ccc(O)cc3)[C@@H](F)C2)CCN1Cc1ccc(F)c(Cl)c1` (stereo partly drawn) [Example 89, 1-(3-Chloro-4-fluorobenzyl)-3-((3R,4R)-3-fluoro-4-(4-hydroxyphenyl)piperidin-1-yl)pyrrolidin-2-one] was 6.70; that for `O=C1[C@H](N2CC[C@@H](c3ccc(O)cc3)[C@H](F)C2)CCN1Cc1ccc(C(F)F)cc1` [Example 114, P-1, (R)-1-(4-(difluoromethyl)benzyl)-3-((3S,4S)-3-fluoro-4-(4-hydroxyphenyl)piperidin-1-yl)pyrrolidin-2-one] was 8.46.
In the case of `O=C1C(N2CCC(c3ccc(O)cc3)CC2)CCN1Cc1ccc(O)cc1` (stereo not shown) [Example 24, 1-(4-Hydroxybenzyl)-3-(4-(4-hydroxyphenyl)piperidin-1-yl)pyrrolidin-2-one], the pKi was 8.33.
As for `O=C1C(N2CCC(c3ccc(O)cc3)C(F)(F)C2)CCN1Cc1ccc(Cl)c(Cl)c1` (stereo not shown) [Example 109, 1-(3,4-Dichlorobenzyl)-3-(3,3-difluoro-4-(4-hydroxyphenyl)piperidin-1-yl)pyrrolidin-2-one], the pKi was 6.54.
With `O=C1C(N2CCC(c3ccc(O)cc3)C(O)C2)CCN1Cc1ccc(F)cc1` (single isomer, unassigned) [Example 9d, 1-(4-Fluorobenzyl)-3-(3-hydroxy-4-(4-hydroxyphenyl)piperidin-1-yl)pyrrolidin-2-one], the pKi was 6.80.
In the case of `O=C1[C@@H](N2CCC(c3ccc(O)cc3)C(F)(F)C2)CCN1Cc1ccccc1` (stereo partly drawn) [Example 102, P-1, (3S)-1-Benzyl-3-(3,3-difluoro-4-(4-hydroxyphenyl)piperidin-1-yl)pyrrolidin-2-one], the negative logarithm of the Ki (pKi) was 6.13.
For the compound `O=C1C(N2CCC(c3ccc(O)cc3)C(F)(F)C2)CCN1Cc1ccc(C(F)(F)F)cc1` (single isomer, unassigned) [Example 53, P-2, 3-(3,3-Difluoro-4-(4-hydroxyphenyl)piperidin-1-yl)-1-(4-(trifluoromethyl)-benzyl)pyrrolidin-2-one], the pKi was 8.24.
`Cc1ccc(CN2CC[C@H](N3CC[C@@H](c4ccc(O)cc4)[C@H](F)C3)C2=O)cc1F` [Example 47, P-1, (S)-3-((3S,4S)-3-Fluoro-4-(4-hydroxyphenyl)piperidin-1-yl)-1-(3-fluoro-4-methylbenzyl)pyrrolidin-2-one]: the pKi is 6.33.
Take `O=C1[C@H](N2CCC(c3ccc(O)cc3)C(F)(F)C2)CCN1Cc1ccc(Cl)c(F)c1` (stereo partly drawn) [Example 96, P-2, (3R)-1-(4-Chloro-3-fluorobenzyl)-3-(3,3-difluoro-4-(4-hydroxyphenyl)piperidin-1-yl)pyrrolidin-2-one]: the pKi was 7.74.
Regarding `O=C1C(N2CCC(c3ccc(O)cc3)C(O)C2)CCN1Cc1ccc(F)cc1` (single isomer, unassigned) [Example 9a, 1-(4-Fluorobenzyl)-3-(3-hydroxy-4-(4-hydroxyphenyl)piperidin-1-yl)pyrrolidin-2-one], the negative logarithm of the Ki (pKi) is 6.74.
As for `C[C@@H](c1ccc(F)cc1)N1CCC(N2CCC(c3ccc(O)cc3)C(F)(F)C2)C1=O` (single isomer, unassigned) [Example 56, P-2], the pKi is 5.85.
Turning to `Cc1ccc(CN2CCC(N3CCC(c4ccc(O)cc4)CC3)C2=O)cc1C` (stereo not shown) [Example 26, 1-(3,4-Dimethylbenzyl)-3-(4-(4-hydroxyphenyl)piperidin-1-yl)pyrrolidin-2-one], the pKi is 7.51.
`O=C1C(N2CCCC(c3ccc(O)cc3)CC2)CCN1Cc1ccc(F)cc1` (stereo not shown) [Example 35, 1-(4-Fluorobenzyl)-3-(4-(4-hydroxyphenyl)azepan-1-yl)pyrrolidin-2-one]: the negative logarithm of the Ki (pKi) was 7.77.
Take `Cc1ccc(CN2CCCC(N3CCC(c4ccc(O)cc4)CC3)C2=O)cc1F` (stereo not shown) [Example 39, 1′-(3-Fluoro-4-methylbenzyl)-4-(4-hydroxyphenyl)-[1,3′-bipiperidin]-2′-one]: the pKi is 6.52.
